Measurements from patent US5189169A (priority 1991, dated 1993).
Where “and” joins values, the source holds several entries; their conditions need not be identical. Equal values may be shown once.

Assays:
[1] = test system: three grassy weeds (wild oat, watergrass, foxtail); parameters: species or system Avena fatua, Echinochloa crusgalli, Setaria viridis; conditions: in vivo
[2] = test system: three broadleaf weeds (morning glory, mustard, velvetleaf); parameters: species or system Ipomoea purpurea, Brassica kaber, Abutilon theophrasti; conditions: in vivo
[3] = test system: yellow nutsedge; parameters: species or system Cyperus esculentus; conditions: in vivo
[4] = test system: three grassy weeds (wild oat, watergrass, foxtail); parameters: species or system Avena fatua, Echinochloa crusgalli, Setaria viridis; conditions: in vivo; remark: listed apart in the source
[5] = test system: three broadleaf weeds (morning glory, mustard, velvetleaf); parameters: species or system Ipomoea purpurea, Brassica kaber, Abutilon theophrasti; conditions: in vivo; remark: listed apart in the source
[6] = test system: yellow nutsedge; parameters: species or system Cyperus esculentus; conditions: in vivo; remark: listed apart in the source
[7] = test system: four grassy weeds: wild oat, watergrass, green foxtail and crabgrass; assay: Pre-emergence herbicidal activity, grassy weeds (Table III); type: in vivo; conditions: 2.24 kg/ha, 2-3 weeks after treatment
Experimental: (§1) The herbicidal effect was observed by comparing the extent of weed control in test flats treated with the compounds against that occurring in similar non-treated control flats. All were applied at 3.57 lb/A (4 kg/ha) to pre-emergence and post-emergence screening flats. An 80 gal/A (748.3 1/ha) spray volume was utilized. Post-emergence flats were seeded 12 days prior to treatment. Pre-emergence flats were seeded one day prior to treatment. Overhead watering of pre-emergence flats and soil surface watering of post-emergence flats, so as to avoid wetting the foliage, were carried out for the duration of the test.
(§2) Weed seeds were planted in a flat at a seed depth of 0.5 inch (1.3 cm). Soil for flats was prepared using loam soil fortified with 17-17-17 fertilizer (N-P2 O5 -K2 O on a weight basis) and Captan 80W fungicide. The test weeds were as follows:
(§3) The spray solutions were prepared by dissolving 240 mg of test compound in 20 ml of acetone containing 1% polyoxyethylene sorbitan monolaurate emulsifier, then adding 20 ml of water to the resulting solution. The spray solutions were applied using a linear spray table. Pre-emergence flats are raised to the level of the post-emergence foliage canopy by setting the flats on a wooden block.
(§4) The degree of weed control was visually assessed and recorded as percentage control compared to the growth of the same species in an untreated check flat of the same age. The rating scale ranges from 0 to 100%, where 0 equals no effect with plant growth equal to the untreated control, and 100 equals complete kill.
(§5) Compounds 68 to 145 in Table I were tested generally similarly to Compounds No. 1 to 67 with the following differences: The rate of application was 2 lb/acre (2.24 kg/ha), no 6-day evaluations were made, and the weeds were:
(§6) Four grassy weeds: wild oat, watergrass, green foxtail and crabgrass (Digitaria sanguinalis);
(§7) Ratings were taken 2-3 weeks after treatment.

[8] = test system: three broadleaf weeds: wild mustard, redroot pigweed and curly dock; assay: Pre-emergence herbicidal activity, broadleaf weeds (Table III); type: in vivo, Brassica kaber, Amaranthus retroflexus, Rumex crispus; conditions: 2.24 kg/ha, 2-3 weeks after treatment
Experimental: as §1, §2, §3, §4, §5
(§8) Three broadleaf weeds: wild mustard, redroot pigweed (Amaranthus retroflexus) and curly dock (Rumex crispus).
as §7

[9] = test system: four grassy weeds: wild oat, watergrass, green foxtail and crabgrass; assay: Post-emergence herbicidal activity, grassy weeds (Table III); type: in vivo; conditions: 2.24 kg/ha, 2-3 weeks after treatment
Experimental: as §1, §2, §3, §4, §5, §6, §7

[10] = test system: three broadleaf weeds: wild mustard, redroot pigweed and curly dock; assay: Post-emergence herbicidal activity, broadleaf weeds (Table III); type: in vivo, Brassica kaber, Amaranthus retroflexus, Rumex crispus; conditions: 2.24 kg/ha, 2-3 weeks after treatment
Experimental: as §1, §2, §3, §4, §5, §8, §7

SMILES | % Control, Pre-emergence, GR avg. [1] | % Control, Pre-emergence, BL avg. [2] | % Control, Pre-emergence, NS [3] | % Control, Post-emergence, GR avg. [4] | % Control, Post-emergence, BL avg. [5] | % Control, Post-emergence, NS [6] | % Control, Pre-Emergence, GR Avg. [7] | % Control, Pre-Emergence, BL Avg. [8] | % Control, Post-Emergence, GR Avg. [9] | % Control, Post-Emergence, BL Avg. [10]
CCCSP(=O)(N(CC)CC(C)C)N(CC)CC(C)C [Compound 49] | 0% | 0% | 0% | 80% and 47% | 100% | 0% | – | – | – | –
CCCSP(=O)(N(CCC)CCC)N(C)c1ccc(F)cc1 (centres unmarked) [Compound 32] | 0% | 0% | 0% | 10% and 3% | – | 0% | – | – | – | –
CCCSP(=O)(N(CCC)CCC)N(C)c1ccc(OC)c(OC)c1 (centres unmarked) [Compound 42] | 0% | 0% | 0% | 20% and 23% | 50% and 83% | 0% | – | – | – | –
CCCCN(CCCC)P(=O)(SCCC)N(C)c1ccc(Cl)cc1Cl (centres unmarked) [Compound 23] | 0% | 0% | 0% | 20% and 13% | 50% and 43% | 0% | – | – | – | –
CCCCN(CCCC)P(=O)(SCCC)N(C)c1ccc(OC)cc1 (centres unmarked) [Compound 11] | 0% | 0% | 9% | 30% and 50% | 60% and 70% | 10% and 0% | – | – | – | –
CCCCN(CCCC)P(=O)(SCCC)N(CCCC)CCCC [Compound 7, S-n-propyl-tetra(n-butyl) phosphorodiamide] | 0% | 0% | 0% | 90% and 93% | 90% and 100% | 10% and 0% | – | – | – | –
CCCSP(=O)(N(CCC)CCC)N(C)c1ccc(Cl)cc1Cl (centres unmarked) [Compound 22] | 0% | 0% | 0% | 50% and 53% | 60% | 10% and 0% | – | – | – | –
CCCCN(CC(C)C)P(=O)(SCCC)N(CCCC)CC(C)C [Compound 50] | 0% | 0% | 0% | 90% and 77% | 85% and 70% | 0% | – | – | – | –
CCCN(CCC)P(=O)(Sc1ccccc1C)N(CCC)CCC [Compound 5] | 0% | 0% | 0% | 40% and 27% | 40% and 33% | 0% | – | – | – | –
CCCCN(CCCC)P(=O)(SCCC)N(C(C)C)C(C)C (centres unmarked) [Compound 28] | 0% | 0% | 0% | 10% and 7% | – | 0% | – | – | – | –
CCCSP(=O)(N(CC)CC)N(C(C)C)C(C)C (centres unmarked) [Compound 29] | 0% | 0% | 0% | 10% and 7% | – | 0% | – | – | – | –
CCCSP(=O)(N(CCC)CCC)N(C)c1cc(OC)cc(OC)c1 (centres unmarked) [Compound 43] | 0% | 0% | 0% | 10% | – | 0% | – | – | – | –
CCCSP(=O)(N(CCC)CCC)N(C)c1ccccc1 (centres unmarked) [Compound 27] | 0% | 0% | 0% | 20% and 40% | – | 0% and 5% | – | – | – | –
CCCCN(CC)P(=O)(SC(C)CC)N(CCC)CCC (centres unmarked) [Compound 114] | – | – | – | – | – | – | 0% | 0% | 56% | 93%
CCCSP(=O)(N(CCC)CCC)N(C)c1ccc(F)c(Cl)c1 (centres unmarked) [Compound 31] | 0% | 0% | 0% | 10% and 5% | – | 0% | – | – | – | –
CCCSP(=O)(N(CCC)CCC)N(C)c1ccccc1F (centres unmarked) [Compound 33] | 0% | 0% | 0% | 5% and 0% | – | 0% | – | – | – | –
CCCSP(=O)(N(CC)CC)N(CCC)CCC (centres unmarked) [Compound 145] | – | – | – | – | – | – | 0% | 30% | 60% | 87%
CCCCN(CCCC)P(=O)(SC(C)C)N(CC)CC (centres unmarked) [Compound 87] | – | – | – | – | – | – | 5% | 12% | 62% | 99%
CCCCN(CCCC)P(=O)(SCCC)N(CCC)CCC (centres unmarked) [Compound 124] | – | – | – | – | – | – | 0% | 0% | 67% | 79%
CCCCN(CCCC)P(=O)(SC1CCCCC1)N(C)C (centres unmarked) [Compound 117] | – | – | – | – | – | – | 0% | 0% | 50% | 77%
CCCN(CCC)P(=O)(SCC)N1CC(CC)CCC1C (centres unmarked) [Compound 96] | – | – | – | – | – | – | 0% | 10% | 65% | 67%
C=CCSP(=O)(N(CCC)CCC)N(CCC)CCC [Compound 99] | – | – | – | – | – | – | 22% | 37% | 58% | 99%
CCCCN(CCCC)P(=O)(SC(C)CC)N(CC)CC (centres unmarked) [Compound 102] | – | – | – | – | – | – | 30% | 40% | 70% | 99%
CCCN(CCC)P(=O)(SC(C)C)N1CC(CC)CCC1C (centres unmarked) [Compound 97] | – | – | – | – | – | – | 0% | 20% | 67% | 86%
CCCCN(CC)P(=O)(SCC)N(CCC)CCC (centres unmarked) [Compound 88] | – | – | – | – | – | – | 0% | 0% | 89% | 96%
CCCN(CCC)P(=O)(SC(C)(C)CC)N(CCC)CCC [Compound 81] | – | – | – | – | – | – | 0% | 0% | 66% | 83%
C=CCN(CC=C)P(=O)(SCCC)N(CCC)CCC (centres unmarked) [Compound 76] | – | – | – | – | – | – | 0% | 0% | 61% | 99%
CCCCSP(=O)(N(CCCC)CCCC)N(CCCC)CCCC [Compound 83] | – | – | – | – | – | – | 5% | 7% | 82% | 99%
CCCCSP(=O)(N(CC)CC)N(CCCC)CCCC (centres unmarked) [Compound 86] | – | – | – | – | – | – | 5% | 7% | 77% | 99%
CCCCN(CCCC)P(=O)(SC(C)C)N(CCC)CCC (centres unmarked) [Compound 125] | – | – | – | – | – | – | 0% | 0% | 59% | 70%
